From ChEMBL document CHEMBL3046585, “Antifungal activity of a novel quercetin derivative bearing a trifluoromethyl group on Candida albicans” (Med Chem Res, 2012)
Active and inactive are the calls of the source. No cut-off for these calls is given here.

Key:
Candida albicans [1] = experiment: Antifungal activity against Candida albicans PC31 at 1.25 mg/ml after 48 hr; assay type: functional, organism-based
Candida albicans [2] = experiment: Antifungal activity against Candida albicans PC31 at 0.60 mg/ml after 48 hr; assay type: functional, organism-based
Candida albicans [3] = experiment: Antifungal activity against Candida albicans PC31 at 0.30 mg/ml after 48 hr; assay type: functional, organism-based
Candida albicans [4] = experiment: Antifungal activity against Candida albicans PC31 at 0.40 mg/ml after 48 hr; assay type: functional, organism-based
Candida albicans [5] = experiment: Antifungal activity against Candida albicans PC31 at 2.50 mg/ml after 48 hr; assay type: functional, organism-based
Candida albicans [6] = experiment: Antifungal activity against Candida albicans PC31 at 2.10 mg/ml after 48 hr; assay type: functional, organism-based
Candida albicans [7] = experiment: Antifungal activity against Candida albicans PC31 at 0.15 mg/ml after 48 hr; assay type: functional, organism-based
Candida albicans [8] = experiment: Antifungal activity against Candida albicans PC31 at 0.50 mg/ml after 48 hr; assay type: functional, organism-based
Candida albicans [9] = experiment: Antifungal activity against Candida albicans PC31 at 1.30 mg/ml after 48 hr; assay type: functional, organism-based
Candida albicans [10] = experiment: Antifungal activity against Candida albicans PC31 at 0.06 mg/ml after 48 hr; assay type: functional, organism-based
Candida albicans [11] = experiment: Antifungal activity against Candida albicans PC31 at 1.60 mg/ml after 48 hr; assay type: functional, organism-based
Candida albicans [12] = experiment: Antifungal activity against Candida albicans PC31 at 1.90 mg/ml after 48 hr; assay type: functional, organism-based
[13] = 1-octanol-water partition coefficient, log P of the compound; assay type: physicochemical
Candida albicans [14] = experiment: Antifungal activity against Candida albicans PC31 at 2.20 mg/ml after 48 hr; assay type: functional, organism-based

| SMILES | Activity (Candida albicans [1]) | Activity (Candida albicans [2]) | Activity (Candida albicans [3]) | Activity (Candida albicans [4]) | Activity (Candida albicans [5]) | Activity (Candida albicans [6]) | Activity (Candida albicans [7]) | Activity (Candida albicans [8]) | Activity (Candida albicans [9]) | Activity (Candida albicans [10]) | Activity (Candida albicans [11]) | Activity (Candida albicans [12]) | logP [13] | Activity (Candida albicans [14]) |
| --- | --- | --- | --- | --- | --- | --- | --- | --- | --- | --- | --- | --- | --- | --- |
| O=c1c(O)c(-c2ccc(O)c(Oc3c([N+](=O)[O-])cc(C(F)(F)F)cc3[N+](=O)[O-])c2)oc2cc(O)cc(O)c12 | Active | Active | inactive | inactive | Active | Active | inactive | inactive | Active | inactive | Active | Active | 0.62 | Active |
| C[C@@H]1O[C@@H](OC[C@H]2O[C@@H](Oc3c(-c4ccc(O)c(O)c4)oc4cc(O)cc(O)c4c3=O)[C@H](O)[C@@H](O)[C@@H]2O)[C@H](O)[C@H](O)[C@H]1O [RUTIN] | inactive | inactive | inactive | inactive | Active | inactive | inactive | inactive | inactive | inactive | inactive | inactive | 0.31 | Active |
